Assay results reported in patent publication US20140378409A1, “EFFECT POTENTIATOR FOR ANTITUMOR AGENTS” (TAIHO PHARMACEUTICAL CO., LTD., priority 2011, published 2014).
Where a name gives a salt, the structure may show the parent alone.

How the values were obtained:
[1] = tested on: human lung cancer cell line NCI-H441; test: Antitumor effect potentiating activity for gemcitabine hydrochloride, NCI-H441 subcutaneously transplanted model (nude mice); type: in vivo, human; nude mice
Experimental: (§1) As an index of the antitumor effect, the TV on Day 15 was measured for each medicament treated group, and the relative tumor volume (RTV) for Day 1 and T/C (%) were calculated by the following formulas to evaluate the antitumor effect.
(§2) TV (mm^3)=(Major axis×minor axis^2)/2
(§3) RTV=(TV on Day 15)/(TV on Day 1)
(§4) T/C (%)=(Mean RTV value of test solution administered group)/(mean RTV value of control group)×100
A human lung cancer cell line (NCI-H441) was transplanted into the right chest of a 5- to 6-week old male BALB/cA Jcl-nu mouse, and the mouse was used in the same manner as described in Test Example 1.
The test solution for a gemcitabine hydrochloride (GEMZAR, manufactured by Eli Lilly and Co.) single administration group was prepared such that the administered dose would be 240 mg/kg/day. Furthermore, the test solution of the compound (1) was prepared such that the administered dose would be 200 mg/kg/day.
The compound (1) was orally administered every day for 14 consecutive days from Day 1, and gemcitabine hydrochloride was administered on Day 1 and Day 8 through the mouse tail vein. Ina combined administration group, 200 mg/kg/day of the compound (1) and 240 mg/kg/day of gemcitabine hydrochloride were administered, and the effects were evaluated in the same manner as described in Test Example 1.

[2] = tested on: human colorectal cancer cell line HT-29; test: Antitumor effect potentiating activity for irinotecan hydrochloride, HT-29 subcutaneously transplanted model (nude mice); type: in vivo, human; nude mice; settings: HT-29, nude mice, Day 15
Experimental: as §1, §2, §3, §4
(§5) Furthermore, as an index of toxicity, the body weight [BW] was measured over time, and the mean body weight change [BWC (%)] up to Day 15 with respect to Day 1 was calculated by the following formula (n: day of body weight measurement carried out at a rate of two times/week, and the final day of measurement corresponds to Day 15, which is the final evaluation day).
(§6) BWC (%)=[(BW on Day n)−(BW on Day 1)]/(BW on Day 1)×100

[3] = tested on: human gastric cancer cell line NCI-N87; test: Antitumor effect potentiating activity for lapatinib, NCI-N87 subcutaneously transplanted model (nude mice); type: in vivo, human; nude mice; settings: 14 days
Experimental: as §1, §2, §3, §4
A human gastric cancer cell line (NCI-N87) was transplanted into the right chest of a 5- to 6-week old male BALB/cA Jcl-nu mouse, and the mouse was used in the same manner as described in Test Example 1. The test solution for a lapatinib (manufactured by LC Laboratories, Inc.) single administration group was prepared such that the amount of administration would be 100 mg/kg/day. Furthermore, the test solution of the compound (1) was prepared such that the amount of administration would be 200 mg/kg/day of the compound (1).
(§7) The compound (1) and lapatinib were orally administered every day for 14 consecutive days from Day 1. In a combined administration group, 200 mg/kg/day of the compound (1) and 100 mg/kg/day of lapatinib were administered, and the effects were evaluated in the same manner as described in Test Example 1.

[4] = tested on: human lung cancer cell line NCI-H460; test: Antitumor effect potentiating activity for paclitaxel, NCI-H460 subcutaneously transplanted model (nude mice); type: in vivo, human; nude mice
Experimental: A human lung cancer cell line (NCI-H460) was transplanted into the right chest of a 5- to 6-week old male BALB/cA Jcl-nu mouse. After the tumor transplantation, the major axis (mm) and the minor axis (mm) of the tumor were measured to calculate the tumor volume (TV), and then mice were allocated to each treatment group such that the average TV's of each group would be uniform. The day on which this grouping (n=5) was performed was designated as Day 1.
The test solution for a paclitaxel (TAXOL injection, Bristol Myers K.K.) single administration group was prepared such that the administered dose of paclitaxel would be 60 mg/kg/day. Furthermore, the test solution for a compound (1) single administration group was prepared such that the administered dose would be 200 mg/kg/day. The compound (1) was orally administered every day for 14 consecutive days from Day 1, and paclitaxel was administered on Day 1 through the mouse tail vein. In a combined administration group, 200 mg/kg/day of the compound (1) and 60 mg/kg/day of paclitaxel were administered.
as §1, §2, §3, §4, §5, §6

[5] = tested on: human gastric cancer cell line NUGC-4; test: Antitumor effect potentiating activity for paclitaxel, NUGC-4 subcutaneously transplanted model (nude mice); type: in vivo, human; nude mice; settings: NUGC-4, nude mice, Day 15
Experimental: as §1, §2, §3, §4, §5, §6
A human gastric cancer cell line (NUGC-4) was transplanted into the right chest of a 5- to 6-week old male BALB/cA Jcl-nu mouse, and the mouse was used in the same manner as described in Test Example 1.
The test solution for a paclitaxel (TAXOL injection, manufactured by Bristol Myers K.K.) single administration group was prepared such that the amount of administration of paclitaxel would be 60 mg/kg/day.
The test solution of the compound (1) was prepared such that the amount of administration would be 12.5 mg/kg/day of the compound (1). In a combined administration group, 12.5 mg/kg/day of the compound (1) and 60 mg/kg/day of paclitaxel were administered. The compound (1) was orally administered every day for 14 consecutive days from Day 1, paclitaxel was administered on Day 1 through the mouse tail vein, and evaluation was made in the same manner as described in Test Example 1.
Furthermore, the body weight changes over time, which is an indicator of toxicity, were also evaluated in the same manner as described in Test Example 1.

[6] = tested on: human gastric cancer cell line NUGC-4; test: Antitumor effect potentiating activity for TS-1, NUGC-4 subcutaneously transplanted model (nude rats); type: in vivo, human; nude rats; settings: NUGC-4, nude rats, Day 15, 14 days
Experimental: as §1, §2, §3, §4
A human gastric cancer cell line (NUGC-4) was transplanted into the right chest of a 5- to 6-week old male nude rat, and the rat was used in the same manner as described in Test Example 1. The test solution for a TS-1 (TS-1, manufactured by Taiho Pharmaceutical Co., Ltd.) single administration group was prepared such that the amount of administration of tegafur would be 18 mg/kg/day. Furthermore, the test solution of the compound (1) was prepared such that the amount of administration would be 250 mg/kg/day and 50 mg/kg/day.
as §7, with “TS-1” for “lapatinib”, “250 mg/kg/day and 50” for “200”, “18” for “100”

[7] = Day 15, 240 mg/kg/day, tail vein Day 1 and Day 8
[8] = Day 15, lapatinib 100 mg/kg/day oral
[9] = Day 15, paclitaxel 60 mg/kg/day, tail vein Day 1
[10] = paclitaxel 60 mg/kg/day, tail vein Day 1
[11] = Day 15, 200 mg/kg/day oral, 14 consecutive days

SMILES: Nc1ccn([C@@H]2O[C@H](CO)[C@@H](O)C2(F)F)c(=O)n1 [Gemcitabine hydrochloride, gemcitabine hydrochloride, reference compound]
- RTV (mean ± standard deviation) [1, 7]: 1.10 ± 0.13
- T/C (%) [1, 7]: 16%

SMILES: CCc1c2c(nc3ccc(OC(=O)N4CCC(N5CCCCC5)CC4)cc13)-c1cc3c(c(=O)n1C2)COC(=O)[C@]3(O)CC [Irinotecan hydrochloride, irinotecan hydrochloride, reference compound]
- RTV (mean ± standard deviation) ([2]; 50 mg/kg/day, tail vein Day 1, Day 5, Day 9): 2.47 ± 0.40

SMILES: CS(=O)(=O)CCNCc1ccc(-c2ccc3ncnc(Nc4ccc(OCc5cccc(F)c5)c(Cl)c4)c3c2)o1 [Lapatinib, lapatinib, reference compound]
- RTV (mean ± standard deviation) [3, 8]: 1.56 ± 0.18
- T/C (%) [3, 8]: 62%

SMILES: CC(=O)O[C@H]1C(=O)[C@@]2(C)[C@H]([C@H](OC(=O)c3ccccc3)[C@]3(O)C[C@H](OC(=O)[C@H](O)[C@@H](NC(=O)c4ccccc4)c4ccccc4)C(C)=C1C3(C)C)[C@]1(OC(C)=O)CO[C@@H]1C[C@@H]2O [Paclitaxel, paclitaxel, reference compound]
- RTV (mean ± standard deviation) [4, 9]: 3.67 ± 0.42
- T/C (%) [4, 9]: 41%
- RTV (mean ± standard deviation) [5, 10]: 5.77 ± 0.96
- T/C (%) [5, 10]: 83%

SMILES: CNC(=O)c1cc2c(Oc3ccc(NC(=S)NC(=O)Cc4ccccc4)cc3F)ccnc2cc1OC [compound (1), 4-(2-Fluoro-4-(3-(2-phenylacetyl)thioureido)phenoxy)-7-methoxy-N-methylquinoline-6-carboxamide]
- RTV (mean ± standard deviation) [4, 11]: 3.02 ± 0.63
- T/C (%) [4, 11]: 34%
- RTV (mean ± standard deviation) [1, 11]: 1.26 ± 0.15
- T/C (%) [1, 11]: 18%
- RTV (mean ± standard deviation) ([6]; 50 mg/kg/day oral): 2.36 ± 0.44
- T/C (%) ([6]; 50 mg/kg/day oral): 14%
- RTV (mean ± standard deviation) ([6]; 250 mg/kg/day oral): 1.60 ± 0.33
- T/C (%) ([6]; 250 mg/kg/day oral): 10%
- RTV (mean ± standard deviation) ([3]; Day 15, 200 mg/kg/day oral): 1.31 ± 0.23
- T/C (%) ([3]; Day 15, 200 mg/kg/day oral): 52%
- RTV (mean ± standard deviation) ([2]; 50 mg/kg/day oral, 14 days): 1.83 ± 0.29
- T/C (%) ([2]; 50 mg/kg/day oral, 14 days): 44%
- RTV (mean ± standard deviation) ([5]; 12.5 mg/kg/day oral, 14 days): 6.63 ± 1.91
- T/C (%) ([5]; 12.5 mg/kg/day oral, 14 days): 95%
